{"source": "paper PMC8217813", "about": "“Bridging Computational Vaccinology and Vaccine Development Through Systematic Identification, Characterization, and Downselection of Conserved and Variable Circumsporozoite Protein CD4 T Cell Epitopes From Diverse Plasmodium falciparum Strains” (Frontiers in Immunology, 2021)", "system": "CD4 T cells co-cultured with autologous DCs from PBMCs", "format": "cell-based, human", "settings": "positive = Stimulation Index ≥1.5-fold above baseline, 5 µg/mL peptide"}
{"sequence": "IKKYLKKIKNSISTEWSPCS [ICS6]", "values": [{"measurement": "Percentage of donors demonstrating IFN-γ responses, DR1", "setting": "DR1 donors N=5, ICCS after 14-day co-culture", "result": 20, "unit": "%"}, {"measurement": "Percentage of donors demonstrating IL-2 responses, DR1", "setting": "DR1 donors N=5, ICCS", "result": 20, "unit": "%"}, {"measurement": "Percentage of donors demonstrating IL-4 responses, DR1", "setting": "DR1 donors N=5, ICCS", "result": 0, "unit": "%"}, {"measurement": "Percentage of donors demonstrating IL-10 responses, DR1", "setting": "DR1 donors N=5, ICCS", "result": 20, "unit": "%"}, {"measurement": "Percentage of donors demonstrating TNF-α responses, DR1", "setting": "DR1 donors N=5, ICCS", "result": 20, "unit": "%"}, {"measurement": "Percentage of donors demonstrating IFN-γ responses, DR3", "setting": "DR3 donors N=6, ICCS after 14-day co-culture", "result": 50, "unit": "%"}, {"measurement": "Percentage of donors demonstrating IL-2 responses, DR3", "setting": "DR3 donors N=6, ICCS", "result": 33, "unit": "%"}, {"measurement": "Percentage of donors demonstrating IL-4 responses, DR3", "setting": "DR3 donors N=6, ICCS", "result": 0, "unit": "%"}, {"measurement": "Percentage of donors demonstrating IL-10 responses, DR3", "setting": "DR3 donors N=6, ICCS", "result": 17, "unit": "%"}, {"measurement": "Percentage of donors demonstrating TNF-α responses, DR3", "setting": "DR3 donors N=6, ICCS", "result": 33, "unit": "%"}, {"measurement": "Percentage of donors demonstrating IFN-γ responses, DR4", "setting": "DR4 donors N=10, ICCS after 14-day co-culture", "result": 40, "unit": "%"}, {"measurement": "Percentage of donors demonstrating IL-2 responses, DR4", "setting": "DR4 donors N=10, ICCS", "result": 30, "unit": "%"}, {"measurement": "Percentage of donors demonstrating IL-4 responses, DR4", "setting": "DR4 donors N=10, ICCS", "result": 0, "unit": "%"}, {"measurement": "Percentage of donors demonstrating IL-10 responses, DR4", "setting": "DR4 donors N=10, ICCS", "result": 30, "unit": "%"}, {"measurement": "Percentage of donors demonstrating TNF-α responses, DR4", "setting": "DR4 donors N=10, ICCS", "result": 30, "unit": "%"}, {"measurement": "Percentage of donors demonstrating IFN-γ responses, DR7", "setting": "DR7 donors N=4, ICCS after 14-day co-culture", "result": 50, "unit": "%"}, {"measurement": "Percentage of donors demonstrating IL-2 responses, DR7", "setting": "DR7 donors N=4, ICCS", "result": 50, "unit": "%"}, {"measurement": "Percentage of donors demonstrating IL-4 responses, DR7", "setting": "DR7 donors N=4, ICCS", "result": 0, "unit": "%"}, {"measurement": "Percentage of donors demonstrating IL-10 responses, DR7", "setting": "DR7 donors N=4, ICCS", "result": 50, "unit": "%"}, {"measurement": "Percentage of donors demonstrating TNF-α responses, DR7", "setting": "DR7 donors N=4, ICCS", "result": 25, "unit": "%"}, {"measurement": "Percentage of donors demonstrating IFN-γ responses, DR8", "setting": "DR8 donors N=4, ICCS after 14-day co-culture", "result": 25, "unit": "%"}, {"measurement": "Percentage of donors demonstrating IL-2 responses, DR8", "setting": "DR8 donors N=4, ICCS", "result": 0, "unit": "%"}, {"measurement": "Percentage of donors demonstrating IL-4 responses, DR8", "setting": "DR8 donors N=4, ICCS", "result": 0, "unit": "%"}, {"measurement": "Percentage of donors demonstrating IL-10 responses, DR8", "setting": "DR8 donors N=4, ICCS", "result": 0, "unit": "%"}, {"measurement": "Percentage of donors demonstrating TNF-α responses, DR8", "setting": "DR8 donors N=4, ICCS", "result": 0, "unit": "%"}, {"measurement": "Percentage of donors demonstrating IFN-γ responses, DR9", "setting": "DR9 donors N=4, ICCS after 14-day co-culture", "result": 50, "unit": "%"}, {"measurement": "Percentage of donors demonstrating IL-2 responses, DR9", "setting": "DR9 donors N=4, ICCS", "result": 50, "unit": "%"}, {"measurement": "Percentage of donors demonstrating IL-4 responses, DR9", "setting": "DR9 donors N=4, ICCS", "result": 25, "unit": "%"}, {"measurement": "Percentage of donors demonstrating IL-10 responses, DR9", "setting": "DR9 donors N=4, ICCS", "result": 25, "unit": "%"}, {"measurement": "Percentage of donors demonstrating TNF-α responses, DR9", "setting": "DR9 donors N=4, ICCS", "result": 50, "unit": "%"}, {"measurement": "Percentage of donors demonstrating IFN-γ responses, DR11", "setting": "DR11 donors N=4, ICCS after 14-day co-culture", "result": 50, "unit": "%"}, {"measurement": "Percentage of donors demonstrating IL-2 responses, DR11", "setting": "DR11 donors N=4, ICCS", "result": 25, "unit": "%"}, {"measurement": "Percentage of donors demonstrating IL-4 responses, DR11", "setting": "DR11 donors N=4, ICCS", "result": 0, "unit": "%"}, {"measurement": "Percentage of donors demonstrating IL-10 responses, DR11", "setting": "DR11 donors N=4, ICCS", "result": 25, "unit": "%"}, {"measurement": "Percentage of donors demonstrating TNF-α responses, DR11", "setting": "DR11 donors N=4, ICCS", "result": 50, "unit": "%"}, {"measurement": "Percentage of donors demonstrating IFN-γ responses, DR13", "setting": "DR13 donors N=7, ICCS after 14-day co-culture", "result": 43, "unit": "%"}, {"measurement": "Percentage of donors demonstrating IL-2 responses, DR13", "setting": "DR13 donors N=7, ICCS", "result": 29, "unit": "%"}, {"measurement": "Percentage of donors demonstrating IL-4 responses, DR13", "setting": "DR13 donors N=7, ICCS", "result": 0, "unit": "%"}, {"measurement": "Percentage of donors demonstrating IL-10 responses, DR13", "setting": "DR13 donors N=7, ICCS", "result": 0, "unit": "%"}, {"measurement": "Percentage of donors demonstrating TNF-α responses, DR13", "setting": "DR13 donors N=7, ICCS", "result": 43, "unit": "%"}, {"measurement": "Percentage of donors demonstrating IFN-γ responses, DR15", "setting": "DR15 donors N=7, ICCS after 14-day co-culture", "result": 43, "unit": "%"}, {"measurement": "Percentage of donors demonstrating IL-2 responses, DR15", "setting": "DR15 donors N=7, ICCS", "result": 29, "unit": "%"}, {"measurement": "Percentage of donors demonstrating IL-4 responses, DR15", "setting": "DR15 donors N=7, ICCS", "result": 14, "unit": "%"}, {"measurement": "Percentage of donors demonstrating IL-10 responses, DR15", "setting": "DR15 donors N=7, ICCS", "result": 43, "unit": "%"}, {"measurement": "Percentage of donors demonstrating TNF-α responses, DR15", "setting": "DR15 donors N=7, ICCS", "result": 43, "unit": "%"}]}
